The subject of assay [1] is Hep3B liver carcinoma xenograft. As to the kind of experiment: Hep3B liver carcinoma xenograft assay, survival. The class given is in vivo, CB17 SCID mice. Particulars: SCID mice, test drug 30 mg/kg i.v. day 1 and 8, sorafenib 25 mg/kg p.o. days 1-5 and 8-12, control 33 days. On the procedure: Xenograft Assay: CB17 severe combined immunodeficient (SCID) female mice were used for all in vivo studies. The mice received food and water ad libitum. For tumor application, logarithmically growing Hep3B cells in cell culture were collected by trypsinization and washed once in serum-free culture medium. The cells were then pelleted and resuspended in culture medium to a final cell count of 2×10^7/ml. 50 μl of the cell suspension was injected s.c. in the right flank of each mouse. Treatment started when all animals in the study had established tumors of a size of about 3×3 mm.
Sorafenib (LC Laboratories, Woburn, Mass., USA) was dissolved in DMSO (50 mg/ml), further diluted in Cremophor EL/95% ethanol (50:50; Sigma), which was followed by a 1:4 dilution in water. 100 μl sorafenib was administered p.o. once daily at 5 consecutive days for two weeks at a dose of 25 mg/kg body weight (days 1-5 and days 8-12).
Tumor size was calculated using the equation (l×w^2)/2, where l and w refer to the larger and smaller dimensions, respectively, of the tumor. 4 mice were used in each group for each data point.

Another assay has as its system colon cancer cells. The settings on record: preclinical studies, Kapitza et al. 2005; cited from earlier work.
The next assay deals with cancer. The settings on record: cited from earlier work.

Each structure is given as a SMILES string.

Consider `[Cl][Ru-]([Cl])([Cl])[Cl].[Na+].c1ccc2[nH]ncc2c1.c1ccc2[nH]ncc2c1` [Test drug], for which, in assay [1], the “increase in life span / mean survival vs. control” value came out at 2.4 fold and the mean survival stood at 80 days. Moreover, in the assay with colon cancer cells, the “inducing apoptosis in colon cancer cells” value is “effective in inducing apoptosis”.
As for `CNC(=O)c1cc(Oc2ccc(NC(=O)Nc3ccc(Cl)c(C(F)(F)F)c3)cc2)ccn1` [sorafenib, reference compound], in assay [1], the “increase in life span / mean survival vs. control” value was determined as 1.9 fold and the mean survival amounted to 60 days.
Take `[Cl-].[Cl-].[Cl-].[Cl-].[Ru+3].c1ccc2[nH][nH+]cc2c1.c1ccc2[nH]ncc2c1.c1ccc2[nH]ncc2c1` [KP1019, indazolium trans-[tetrachlorobis(1H-indazole)ruthenate (III)]]: the “anti-cancer activities in a phase I clinical trial” value in the assay with cancer was “some anti-cancer activities”. Moreover, the “inducing apoptosis in colon cancer cells” value with colon cancer cells was “effective in inducing apoptosis”.

(Values after US20130129840A1, “COMBINATION THERAPY USING A RUTHENIUM COMPLEX” (Niiki Pharma Inc., priority 2010, published 2013).)
